The series is described as follows: gradient 5% acetonitrile 3 min, to 50% in 2 min, to 85% in 15 min, held 3 min, 100 µL/min. Particulars: column: Zorbax Extend-C18 2.1 x 50 mm; eluents: water / acetonitrile, 0.1% formic acid. An outline of the steps:
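Pure standards were run in mixtures of ~100 molecules by HPLC coupled to a quadrupole time-of-flight mass spectrometer. The column was a Zorbax Extend-C18 (2.1 × 50 mm, 1.8 μm) at 100 μL/min, with water and acetonitrile each containing 0.1% formic acid, in positive and negative ionization mode. Dead and dwell volumes were 40 μL and 900 μL. Retention time was taken from computationally picked adduct peaks, each manually inspected, with data collected over 3 months.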
With `CN(C)CCOc1ccccc1Cc1ccccc1`, the RP-LC retention time was 762 s.
Next, `CC(C)NC(=O)c1ccc(Nc2c(-c3ccccc3)nc3cnccn23)cc1`: 702 s; `O=C(Cn1ccc2ccn(Cc3ccccc3F)c2c1=O)NCc1ccc(F)cc1F`: 880 s; `COc1ccc(S(=O)(=O)N2CCCC(C(=O)NC3CCCCCC3)C2)cc1C` (centres undefined): 1040 s.
With `Cc1cccc(-n2ncc(C(=O)N3CCN(c4ccccn4)CC3)c2-n2cccc2)c1`, the RP-LC retention time came out at 688 s.
Next, `COc1c(C(=O)NC(C)C)sc2ccc(F)cc12`: 952 s; `CCCn1c(=O)c(N2CCC(NC(=O)NC3CCCCC3)CC2)nc2ccccc21`: 953 s; `COc1ccc(-c2noc(C3CC(=O)N(c4ccc(Cl)cc4)C3)n2)c(OC)c1` (centres undefined): 928 s.
The compound `Cc1nnc(SCCC(=O)Nc2ccc(F)cc2)s1` displayed an RP-LC retention time of 692 s.
Under `COc1cc(-n2c(C)nc3cc(C(=O)NCC4CCCO4)ccc32)cc(OC)c1OC` (centres undefined) stands 631 s.
Under `CC1CN(C(=O)c2ccc(C#N)cc2)c2ccccc2O1` (centres undefined) stands 914 s; under `COc1ccc(-n2ncc3c(=O)n(Cc4nc(-c5cccc(OC)c5)no4)cnc32)cc1`, 984 s; under `Cc1ccc(NC(=O)N2CCc3cn(C)c4cccc(c34)C2)c(C)c1`, 980 s.
In the case of `Cc1cc(NC(=O)c2ccco2)c2cc(F)cc(F)c2n1`, the RP-LC retention time stood at 668 s.
Under `CCOc1ccc(-c2[nH]ncc2CNS(=O)(=O)Cc2ccc(C)cc2)cc1` stands 853 s; under `Cc1cccc(N2CCN(C(=O)CC3COc4ccccc4NC3=O)CC2)c1C` (centres undefined), 861 s; under `Cc1ccc2c(c1)C(O)(CC(=O)c1ccc(NC(=O)C(C)(C)C)cc1)C(=O)N2` (centres undefined), 747 s.
Under `COc1ccc(S(=O)(=O)NCCc2cn(C)c3ncccc23)cc1` stands 696 s; under `Cc1ccc(Cc2nc(-c3ccc(S(=O)(=O)N4CCC(C(=O)N5CCCC5)CC4)cc3)no2)cc1`, 1060 s.
Compound `CCc1ccc(CNC(=O)C2CCCN(c3ccc(=O)n(-c4ccc(OC)cc4)n3)C2)cc1` (centres undefined) registered an RP-LC retention time of 871 s.
Under `CC(C)CCNC(=O)CN1C(=O)C2CCCCN2c2ccc(S(=O)(=O)N3CCCC3)cc21` (centres undefined) stands 940 s; under `O=C(Cn1cnc2nc(N3CCC(C(=O)NC4CC4)CC3)sc2c1=O)Nc1cc(F)cc(F)c1`, 694 s.
In turn, `Cn1ccc2cc(S(=O)(=O)N3CCCC(C(=O)NCCCN4CCOCC4)C3)ccc21` (centres undefined) came in with an RP-LC retention time of 627 s.
`Cc1ncsc1CN1CC(c2ncc(C)n2Cc2ccccc2)C1` showed an RP-LC retention time of 559 s.
Under `O=C(NCCC1CCN(C(=O)Nc2ccc(F)cc2)CC1)c1ccco1` stands 718 s; under `O=C1CCN(C(=O)COc2ccc(Cl)cc2)c2ccccc2N1`, 691 s.
Under `CC(C)c1ccc(NC(=O)Cn2c(=O)cc(-c3nc(C4CC4)no3)c3ccccc32)cc1` stands 1120 s; under `Cn1cc(-c2nc(C(=O)NCc3cccs3)cs2)c2cccnc21`, 851 s; under `COc1ccc(-c2cc3n(n2)CCCN(C(C)=O)C3)cc1`, 656 s.
Next, `CCN1CCCn2cc(S(=O)(=O)Nc3ccc(OC)cc3)cc2C1=O`: 680 s; `CCCS(=O)(=O)N1[C@H]2CC[C@@H]1c1cnc(-c3ccc(F)cc3)nc1C2`: 1010 s; `O=C(NCCc1ccccc1)NCc1cccn1Cc1ccc(F)cc1`: 965 s.
Turning to `CCn1cc(CN2CCC(N3C(=O)C4(CCCCC4)C3c3ccncc3)CC2)c(C)n1` (centres undefined), the RP-LC retention time came out at 532 s.
Under `O=C(NC1CCCN(c2cc(-c3ccc(F)cc3)[nH]n2)C1)c1ccc2c(c1)OCO2` (centres undefined) stands 796 s.
Under `Cc1nn(C(C)C(=O)NCCc2ccccc2)c(=O)c2c(-n3cccc3)n(-c3ccccc3)nc12` (centres undefined) stands 1070 s.
Next, `CCc1nc(-c2csc(S(=O)(=O)N3CCCC(C(=O)NC4CCCCCC4)C3)c2)no1` (centres undefined): 1060 s; `CCN1CCN(CCCNC(=O)c2noc(C)c2Cn2nc(C)cc2C)CC1`: 572 s.
As to `COCCNC(=O)C1CCN(S(=O)(=O)c2ccc3c(c2)NC(=O)CO3)CC1`, the RP-LC retention time was 862 s.
As to `Cc1cc(C(=O)NC2CC2)c2cc(C(C)C)ccc2n1`, the RP-LC retention time came out at 636 s.
Under `COCCN1C(=O)CCC2(CNC(=O)c3cnccn3)CCCC=C12` (centres undefined) stands 657 s.
Next, `COC(=O)c1[nH]c(C)c(C(=O)C(C)N(CC2CCCCC2)C(=O)c2ccc(OC)cc2)c1C` (centres undefined): 708 s.
Next, `CC(C)Oc1ccc(CN2C[C@@H]3C(=O)N(CCCN4CCCC4=O)C(=O)[C@@H]3C2)cc1`: 581 s; `Cc1cccc(NC(=O)N2CCC(N3CCN(Cc4ccccn4)C(=O)C3=O)CC2)c1`: 610 s; `O=C(c1cccnc1)N1CCN(C(=O)c2nnn3c2COC(c2ccccc2)C3)CC1` (centres undefined): 640 s.
`COc1cccc(OC)c1CN1CC(n2cnnc2-c2cccnc2)C1` gave an RP-LC retention time of 548 s.
As to `NC(=O)c1ccsc1NC(=O)c1ccccc1[N+](=O)[O-]`, the RP-LC retention time amounted to 669 s.
Under `COc1ccc2c(c1)C1(CCN(S(=O)(=O)c3cccc(F)c3)C1)C(=O)N2C` (centres undefined) stands 874 s.
Under `CCN(CC)c1nc2cc(C(=O)NCc3ccc(C)o3)ccc2c(=O)n1-c1ccccc1` stands 1020 s.
Next, `CC(Cc1ccco1)NC(=O)c1ccc2ccnc(N3CCN(c4ccccc4)CC3)c2c1` (centres undefined): 806 s; `COc1ccc(OC)c(CNC(=O)C2CCN(S(=O)(=O)c3ccc4c(c3)NC(=O)CO4)CC2)c1`: 721 s.
`Cc1cccc(NC(=O)N(C)CCc2noc(COc3ccccc3F)n2)c1C` gave an RP-LC retention time of 823 s.
Next, `O=C(NCCC1=CCCCC1)c1ccc(-c2nccnc2N2CCCC2)cc1`: 1030 s; `Cc1cc(OCC(=O)Nc2ccc(C)c(C)c2)nc(N2CCN(c3ccccc3)CC2)n1`: 911 s; `Cc1ccc(Sc2nccnc2N2CCC(C(=O)NCc3ccc(F)cc3F)CC2)cc1`: 1070 s.
Under `CCN1C(=O)c2cccnc2Sc2cc(NC(=O)CCc3ccccc3)ccc21` stands 950 s.
Next, `O=C(CCc1c(-c2ccc(F)cc2)nc2ccccn12)NCc1cccc(F)c1`: 645 s.
`Cc1nnn(C23CC4CC(CC(C(=O)N5CCN(c6ccccn6)CC5)(C4)C2)C3)n1` gave an RP-LC retention time of 597 s.
Next, `Cc1nc(-c2ccc(OC3CCN(C(=O)NC(C)C)C3)cc2)no1` (centres undefined): 730 s; `Cc1cc2[nH]c(C(=O)Nc3ccc(Cl)cc3Cl)c(CN3CCOCC3)c2s1`: 759 s.
